# Test results: patent US8975401B2, “Quinazoline based EGFR inhibitors containing a zinc binding moiety” (Curis, Inc., priority 2006, dated 2015)
# Biological target: T1, human EGFR (His672-Ala1210) (Homo sapiens, UniProt P00533)
# T1 construct: human EGFR (His672-Ala1210); GST (N); purchased Cell Signaling Technologies; host or cells: baculovirus expression system
# Assay: HTScan EGF Receptor Kinase Assay
# Type: biochemical
# Protocol: The ability of compounds to inhibit receptor kinase (EGFR) activity was assayed using HTSCAN™ EGF Receptor Kinase Assay Kits (Cell Signaling Technologies, Danvers, Mass.). […] The protein was purified by one-step affinity chromatography using glutathione-agarose.
# Immediately transfer enzyme from −80° C. to ice. Allowed enzyme to thaw on ice. […] Returned immediately to ice. […] Incubated reaction plate at room temperature for 30 minutes. […] Added 100 μl/well primary antibody. Incubated at room temperature for 60 minutes. […] Added 100 μl/well diluted antibody. Incubated at room temperature for 30 minutes. […] Incubated at room temperature for 5 minutes.
# T1 sequence (P00533 672-1210): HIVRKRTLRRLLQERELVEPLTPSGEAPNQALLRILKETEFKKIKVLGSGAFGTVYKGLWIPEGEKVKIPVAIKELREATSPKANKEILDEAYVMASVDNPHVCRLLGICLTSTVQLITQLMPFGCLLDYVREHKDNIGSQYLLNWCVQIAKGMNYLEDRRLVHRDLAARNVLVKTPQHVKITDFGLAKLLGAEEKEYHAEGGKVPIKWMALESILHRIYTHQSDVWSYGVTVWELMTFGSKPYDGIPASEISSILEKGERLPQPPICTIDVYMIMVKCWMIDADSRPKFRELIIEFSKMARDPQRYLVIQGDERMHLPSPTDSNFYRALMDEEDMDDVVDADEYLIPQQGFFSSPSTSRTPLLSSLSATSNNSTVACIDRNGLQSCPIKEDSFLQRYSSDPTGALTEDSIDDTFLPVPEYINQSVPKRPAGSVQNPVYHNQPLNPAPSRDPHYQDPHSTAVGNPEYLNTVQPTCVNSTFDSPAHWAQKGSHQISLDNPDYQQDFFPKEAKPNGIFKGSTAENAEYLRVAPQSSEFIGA
row,Compound,IC50
1,"COc1cc2ncnc(Nc3ccc(F)c(Cl)c3)c2cc1OCC(=O)NO [Compound 1, 2-(4-(3-Chloro-4-fluorophenylamino)-7-methoxyquinazolin-6-yloxy)-N-hydroxyacetamide]",< 0.1 µM
2,COc1cc2ncnc(Nc3ccc(F)c(Cl)c3)c2cc1OCCC(=O)NO [Compound 2],< 0.1 µM
3,"COc1cc2ncnc(Nc3ccc(F)c(Cl)c3)c2cc1OCCCC(=O)NO [Compound 3, 4-(4-(3-Chloro-4-fluorophenylamino)-7-methoxyquinazolin-6-yloxy)-N-hydroxybutanamide]",< 0.1 µM
4,COc1cc2ncnc(Nc3ccc(F)c(Cl)c3)c2cc1OCCCCC(=O)NO [Compound 4],< 0.1 µM
5,COc1cc2ncnc(Nc3ccc(F)c(Cl)c3)c2cc1OCCCCCC(=O)NO [Compound 5],< 0.1 µM
6,"C#Cc1cccc(Nc2ncnc3cc(OC)c(OCC(=O)NO)cc23)c1 [Compound 7, 2-(4-(3-ethynylphenylamino)-7-methoxyquinazolin-6-yloxy)-N-hydroxyacetamide]",< 0.1 µM
7,C#Cc1cccc(Nc2ncnc3cc(OC)c(OCCC(=O)NO)cc23)c1 [Compound 8],< 0.1 µM
8,"C#Cc1cccc(Nc2ncnc3cc(OC)c(OCCCC(=O)NO)cc23)c1 [Compound 9, 4-(4-(3-ethynylphenylamino)-7-methoxyquinazolin-6-yloxy)-N-hydroxybutanamide]",< 0.1 µM
9,"C#Cc1cccc(Nc2ncnc3cc(OC)c(OCCCCCC(=O)NO)cc23)c1 [Compound 11, 6-(4-(3-ethynylphenylamino)-7-methoxyquinazolin-6-yloxy)-N-hydroxyhexanamide]",< 0.1 µM
10,"O=C(COc1ccc2ncnc(Nc3ccc(F)c(Cl)c3)c2c1)NO [Compound 13, 2-(4-(3-chloro-4-fluorophenylamino)quinazolin-6-yloxy)-N-hydroxyacetamide]",< 0.1 µM
11,O=C(CCOc1ccc2ncnc(Nc3ccc(F)c(Cl)c3)c2c1)NO [Compound 14],< 0.1 µM
12,"O=C(CCCCOc1ccc2ncnc(Nc3ccc(F)c(Cl)c3)c2c1)NO [Compound 16, 5-(4-(3-chloro-4-fluorophenylamino)quinazolin-6-yloxy)-N-hydroxypentanamide]",< 0.1 µM
13,"O=C(CCCCCOc1ccc2ncnc(Nc3ccc(F)c(Cl)c3)c2c1)NO [Compound 17, 6-(4-(3-chloro-4-fluorophenylamino)quinazolin-6-yloxy)-N-hydroxy hexanamide]",< 0.1 µM
14,"O=C(CCCCCCOc1ccc2ncnc(Nc3ccc(F)c(Cl)c3)c2c1)NO [Compound 18, 7-(4-(3-chloro-4-fluorophenylamino)quinazolin-6-yloxy)-N-hydroxyheptanamide]",< 0.1 µM
15,"C#Cc1cccc(Nc2ncnc3ccc(OCC(=O)NO)cc23)c1 [Compound 19, 2-(4-(3-ethynylphenylamino)quinazolin-6-yloxy)-N-hydroxyacetamide]",< 0.1 µM
16,"C#Cc1cccc(Nc2ncnc3ccc(OCCCC(=O)NO)cc23)c1 [Compound 21, 4-(4-(3-ethynylphenylamino)quinazolin-6-yloxy)-N-hydroxybutanamide]",0.1 to 1 µM
17,C#Cc1cccc(Nc2ncnc3ccc(OCCCCC(=O)NO)cc23)c1 [Compound 22],< 0.1 µM
18,"C#Cc1cccc(Nc2ncnc3ccc(OCCCCCC(=O)NO)cc23)c1 [Compound 23, 6-(4-(3-ethynylphenylamino)quinazolin-6-yloxy)-N-hydroxyhexanamide]",0.1 to 1 µM
19,"C#Cc1cccc(Nc2ncnc3ccc(OCCCCCCC(=O)NO)cc23)c1 [Compound 24, 7-(4-(3-ethynylphenylamino)quinazolin-6-yloxy)-N-hydroxyheptanamide]",0.1 to 1 µM
20,"COCCOc1cc2ncnc(Nc3ccc(F)c(Cl)c3)c2cc1OCCCCCCC(=O)NO [Compound 30, 7-(4-(3-Chloro-4-fluorophenylamino)-7-(2-methoxyethoxy)quinazolin-6-yloxy)-N-hydroxyheptanamide]",< 0.1 µM
21,"C#Cc1cccc(Nc2ncnc3cc(OCCOC)c(OCCCCCCC(=O)NO)cc23)c1 [Compound 36, 7-(4-(3-Ethynylphenylamino)-7-(2-methoxyethoxy)quinazolin-6-yloxy)-N-hydroxyheptanamide]",< 0.1 µM
22,"COc1cc2ncnc(Nc3ccc(F)c(Cl)c3)c2cc1NC(=O)CCCC(=O)NO [Compound 38, N^1-(4-(3-chloro-4-fluorophenylamino)-7-methoxyquinazolin-6-yl)-N^5-hydroxyglutaramide]",< 0.1 µM

row,Compound,IC50
1,"COc1cc2ncnc(Nc3ccc(F)c(Cl)c3)c2cc1NC(=O)CCCCCCC(=O)NO [Compound 40, N^1-(4-(3-chloro-4-fluorophenylamino)-7-methoxyquinazolin-6-yl)-N^8-hydroxyoctanediamide]",< 0.1 µM
2,"C#Cc1cccc(Nc2ncnc3cc(OC)c(NC(=O)CCCC(=O)NO)cc23)c1 [Compound 42, N^1-(4-(3-ethynylphenylamino)-7-methoxyquinazolin-6-yl)-N^5-hydroxyglutaramide]",< 0.1 µM
3,"C#Cc1cccc(Nc2ncnc3cc(OC)c(NC(=O)CCCCC(=O)NO)cc23)c1 [Compound 43, N^1-(4-(3-ethynylphenylamino)-7-methoxyquinazolin-6-yl)-N^6-hydroxyadipamide]",< 0.1 µM
4,"C#Cc1cccc(Nc2ncnc3cc(OC)c(NC(=O)CCCCCCC(=O)NO)cc23)c1 [Compound 44, N^1-(4-(3-ethynylphenylamino)-7-methoxyquinazolin-6-yl)-N^8-hydroxyoctanediamide]",< 0.1 µM
5,Nc1cc(Br)ccc1NC(=O)COc1ccc2ncnc(Nc3ccc(F)c(Cl)c3)c2c1 [Compound 45],0.1 to 1 µM
6,C[C@@H](Nc1ncnc2ccc(OCCCCCC(=O)NO)cc12)c1ccccc1 [Compound 50],0.1 to 1 µM
7,"COc1cc2ncnc(Nc3ccc(F)c(Cl)c3)c2cc1OCCOc1ccc(/C=C/C(=O)NO)cc1 [Compound 66, (E)-3-(4-(2-(4-(3-chloro-4-fluorophenylamino)-7-methoxyquinazolin-6-yloxy)ethoxy)phenyl)-N-hydroxyacrylamide]",< 0.1 µM
8,"COCCOc1cc2ncnc(Nc3ccc(F)c(Cl)c3)c2cc1NC(=O)CCCC(=O)NO [Compound 68, N^1-(4-(3-chloro-4-fluorophenylamino)-7-(2-methoxyethoxy)quinazolin-6-yl)-N^5-hydroxyglutaramide]",< 0.1 µM
9,"COCCOc1cc2ncnc(Nc3ccc(F)c(Cl)c3)c2cc1NC(=O)CCCCC(=O)NO [Compound 69, N^1-(4-(3-chloro-4-fluorophenylamino)-7-(2-methoxyethoxy)quinazolin-6-yl)-N^6-hydroxyadipamide]",< 0.1 µM
10,"C#Cc1cc(Nc2ncnc3cc(OC)c(OCCCCCCC(=O)NO)cc23)ccc1F [Compound 75, 7-(4-(3-ethynyl-4-fluorophenylamino)-7-methoxyquinazolin-6-yloxy)-N-hydroxyheptanamide]",< 0.1 µM
11,C#Cc1cc(Nc2ncnc3cc(OCCOC)c(OCCCCCCC(=O)NO)cc23)ccc1F [Compound 76],< 0.1 µM
12,"COc1cc2ncnc(N[C@H](C)c3ccccc3)c2cc1OCCCCCC(=O)NO [Compound 77, (R)—N-hydroxy-6-(7-methoxy-4-(1-phenylethylamino)quinazolin-6-yloxy)-hexanamide]",< 0.1 µM
13,"COc1cc2ncnc(N[C@H](C)c3ccc(F)cc3)c2cc1OCCCCCCC(=O)NO [Compound 81, (R)-7-(4-(1-(4-fluorophenyl)ethylamino)-7-methoxyquinazolin-6-yloxy)-N-hydroxyheptanamide]",0.1 to 1 µM
14,"COc1cc2ncnc(N[C@H](C)c3ccc(Cl)cc3)c2cc1OCCCCCCC(=O)NO [Compound 82, (R)-7-(4-(1-(4-chlorophenyl)ethylamino)-7-methoxyquinazolin-6-yloxy)-N-hydroxyheptanamide]",0.1 to 1 µM
15,"COc1ccc([C@@H](C)Nc2ncnc3cc(OC)c(OCCCCCCC(=O)NO)cc23)cc1 [Compound 83, (R)—N-hydroxy-7-(7-methoxy-4-(1-(4-methoxyphenyl)ethylamino)quinazolin-6-yloxy)-heptanamide]",> 10 µM
16,COc1cc2ncnc(NCCc3ccccc3)c2cc1OCCCCCCC(=O)NO [Compound 84],0.1 to 1 µM
17,"COc1cc2ncnc(NCc3ccc(F)c(F)c3)c2cc1OCCCCCCC(=O)NO [Compound 87, 7-(4-(3,4-difluorobenzylamino)-7-methoxyquinazolin-6-yloxy)-N-hydroxyheptanamide]",0.1 to 1 µM
18,"COc1cc2ncnc(NCc3ccc(F)c(Cl)c3)c2cc1OCCCCCCC(=O)NO [Compound 88, 7-(4-(3-chloro-4-fluorobenzylamino)-7-methoxyquinazolin-6-yloxy)-N-hydroxyheptanamide]",< 0.1 µM
19,"COc1cc2ncnc(NCc3cccc(Br)c3)c2cc1OCCCCCCC(=O)NO [Compound 89, 7-(4-(3-bromobenzylamino)-7-methoxyquinazolin-6-yloxy)-N-hydroxyheptanamide]",0.1 to 1 µM
20,COc1cc2ncnc(Nc3ccc(F)c(Cl)c3)c2cc1OCCOc1ccc(CC(=O)NO)cc1 [Compound 91],< 0.1 µM
21,COc1cc2ncnc(Nc3ccc(F)c(Cl)c3)c2cc1NC(=O)Nc1ccc(C(=O)NO)cc1 [Compound 93],< 0.1 µM
22,COc1cc2ncnc(Nc3ccc(F)c(Cl)c3)c2cc1OCCCCCCC(=O)N(C)O [Compound 94],< 0.1 µM
